The test system of one assay is HDAC4 KD LNCaP cells. Kind of assay: In vitro growth of HDAC4 KD LNCaP cells. The format is cell-based, human. As to the method:
Generation of stable shRNA Knock Down (KD) Variants. Stable shRNA HDAC4, and HIF-1α knockdown (KD) were as described previously (id.). Stable shRNA AHR KD as described previously (id.) using […] (SEQ ID NO: 1) as the targeting sequence.
Similarly, under such optimal conditions, knocking down HDAC4 expression by 50% with shRNA only decreases the growth of LNCaP cells by <25%, which is equivalent to the inhibition by TasQ at 10 μM (FIG. 22). […] In contrast to normoxic in vitro conditions, cancers outgrow their blood supply in vivo, producing a TME that is hypoxic, nutrient-limited, and acidic (low pH). For example, when prostate cancer xenografts growing subcutaneously reach a size of ˜0.2-0.3 cc, the TME is already hypoxic with a pO2 of 3.6+/−1.5 mmHg compared to 37.5+/−8.6 mmHg in normal tissue (Dalrymple et al. Prostate 72, 638-648 (2012)). When LNCaP cells are switched from 21% O2 (i.e., 160 mmHg) to a hypoxic condition of 1% O2 (i.e., 7.6 mmHg), their growth decreases by 50% (FIG. 22). This hypoxia-induced growth inhibition is enhanced by either knocking down HDAC4 or by treatment with TasQ (FIG. 22).

The next assay has as its target T1, fl-HDAC4 (wild-type) (Homo sapiens, UniProt P56524).
T1 construct: Full-length (fl) [A.A. 1-1082] recombinant human histone deacetylase 4 (rhHDAC4) protein; FLAG (N); GST (given as 'with or without'); made in house; host or cells: HEK293-T
Description: SPR binding analysis TasQ / fl-HDAC4. As to the method:
Surface Plasmon Resonance (SPR) Binding Analysis. SPR analysis was performed on the Biacore 3000™ system using CM5 sensor chips, certified buffers (HBS-P—10 mM HEPES, 0.15 M NaCl, pH 7.4, containing 0.005% v/v Surfactant P; HBS-EP-HBS-P with 3 mM EDTA) and reagents for immobilization and surface regeneration from Biacore, GE Healthcare, Uppsala Sweden. Evaluation of sensorgrams was performed using the BIA-evaluation Software version 4.1 and GraphPad Prism 4. Buffer of protein reagents were changed to HBS-P on Zeba spin desalting columns (Thermo Scientific) prior to being used in SPR analysis (Isaacs 2013).
A. Binding of wild-type and mutant forms of HDAC4 to immobilized TasQ. TasQ (ABR-215050; mol wt 406.4) was dissolved as a 40 mM solution in water with 1.5 equivalents of NaOH. TasQ with an amino-linker [i.e. —(CH2)2O(CH2)2—NH2](ABR-225180) in amide nitrogen position was used for amine coupling on to a Biacore CM5 sensor chip. A 1 mg/mL solution of ABR-225180 in HBS-P buffer was prepared and immobilized on a CM5 chip by injection at a flow rate of 5 or 10 μL/min until a stable response level was reached. Interaction of various HDAC4 forms with immobilized TasQ was studied by injection over this surface in HBS-P buffer containing 10 or 20 μM ZnCl2. Bound HDAC4 was removed by a pulse of 3 mM EDTA in HBS-P or 0.5 to 6.25 mM NaOH in water. In a second series of experiments, the ability of TasQ in solution to displace this binding was studied by pre-incubation of HDAC4 with TasQ as competitor.
B. Binding of TasQ to immobilized HDAC4 and NCoR1. Different variants of HDAC4 (full-length wild-type and mutant forms and the truncated protein) and full-length NCoR1 were immobilized on a CM5 chip using random amine coupling. Briefly, proteins were dissolved in 10 mM sodium acetate buffer at pH 5.0 or 5.5 and immobilized to the aimed level using the standard protocol from GE Healthcare. Serially diluted TasQ in HBS-P buffer with 10 or 20 μM Zn was injected (for 2 or 3 min at a flow rate of 30 μl/min) either directly or after a 1st injection of 1 mM DTT to reduce cysteines in the zinc conformation site in HDAC4. Regeneration was made with a short pulse of HBS-EP.
To evaluate the conformational requirements for TasQ's binding to HDAC4, surface plasmon resonance (SPR) analysis was utilized. To maximize conformational flexibility, TasQ is immobilized onto the surface of a Biacore CM5 sensor chip via an amino-linker [i.e. —(CH2)2—O—(CH2)2—NH2] in its amide nitrogen position.
By comparison, Linomide even at >30 μM in solution binds only 10-15% of the immobilized fl-HDAC4 protein despite the presence of Zn^+2 (FIG. 14). […] The fact that the KD for binding of soluble TasQ to immobilized fl-HDAC4 is higher than the KD for binding of soluble fl-HDAC4 with immobilized TasQ is predictable. This is because the conformational dynamics of fl-HDAC4 protein immobilized on the chip are more restrictive due to the multiple random amine coupling than the conformational dynamics of TasQ immobilized via a single amino-linker.
To address this possibility, a competitive binding assay was developed based upon the ability of TasQ in solution to compete with immobilized TasQ on the SPR-chip for binding to fl-HDAC4.
A general note: In SPR one partner is held on a chip, and binding of the other changes the refractive index at the surface.

Assay [1] relates to human prostate cancer cell lines. Conditions: optimal normoxic, nutrient and pH culture conditions; previous studies; read-out: IC50 in vitro growth of human prostate cancer cell lines; cited from earlier work.

Values joined by “and” are separate entries in the source; they are usually repeats but may differ in a detail not shown here. Identical values can stand only once. Like-named read-outs stand apart in the source and are kept apart here. A value given as a limit tells only on which side of the number the result lay.

The values that follow come from patent US20250059139A1, “COMPOUNDS FOR TREATMENT OF CANCER” (THE JOHNS HOPKINS UNIVERSITY, priority 2021, published 2025).

T1 sequence (P56524 whole entry): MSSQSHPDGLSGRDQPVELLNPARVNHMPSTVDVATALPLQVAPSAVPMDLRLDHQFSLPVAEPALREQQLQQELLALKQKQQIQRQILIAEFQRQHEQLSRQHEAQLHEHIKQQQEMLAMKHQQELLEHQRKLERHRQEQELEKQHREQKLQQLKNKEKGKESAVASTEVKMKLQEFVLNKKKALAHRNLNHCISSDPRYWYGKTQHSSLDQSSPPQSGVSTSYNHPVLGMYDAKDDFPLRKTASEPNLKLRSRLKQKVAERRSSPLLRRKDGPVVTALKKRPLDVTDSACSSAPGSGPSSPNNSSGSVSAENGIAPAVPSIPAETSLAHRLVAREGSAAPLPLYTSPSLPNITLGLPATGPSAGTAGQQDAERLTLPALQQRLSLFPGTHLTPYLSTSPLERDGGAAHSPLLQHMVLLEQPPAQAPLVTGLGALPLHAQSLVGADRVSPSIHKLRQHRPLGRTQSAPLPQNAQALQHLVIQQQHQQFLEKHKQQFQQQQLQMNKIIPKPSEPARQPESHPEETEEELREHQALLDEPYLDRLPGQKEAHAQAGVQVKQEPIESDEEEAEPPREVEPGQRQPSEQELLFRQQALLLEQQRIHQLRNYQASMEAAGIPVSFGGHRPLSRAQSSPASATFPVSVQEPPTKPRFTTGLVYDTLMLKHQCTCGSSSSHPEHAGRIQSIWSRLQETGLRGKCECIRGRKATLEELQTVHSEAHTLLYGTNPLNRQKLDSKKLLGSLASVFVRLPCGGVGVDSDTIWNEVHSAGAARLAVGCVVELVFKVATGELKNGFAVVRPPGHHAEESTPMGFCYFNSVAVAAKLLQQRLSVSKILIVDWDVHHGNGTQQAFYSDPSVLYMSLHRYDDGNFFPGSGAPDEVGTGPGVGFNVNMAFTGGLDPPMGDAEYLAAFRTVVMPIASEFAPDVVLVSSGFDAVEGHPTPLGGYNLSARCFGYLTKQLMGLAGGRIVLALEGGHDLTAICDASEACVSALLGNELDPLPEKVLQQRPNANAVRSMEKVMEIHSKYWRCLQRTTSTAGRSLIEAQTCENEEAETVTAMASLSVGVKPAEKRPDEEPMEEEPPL

What is called inhibition is the drop in the measured response relative to a control, in per cent. Lower therefore signals a weak effect. In general, IC50 refers to the concentration that inhibits the measured activity by half. What is called Kd is the free concentration of one partner at which half of the binding sites on the other are occupied at equilibrium, for simple one-to-one binding. `COc1cccc2c1c(O)c(C(=O)N(C)c1ccc(C(F)(F)F)cc1)c(=O)n2C` [TasQ, Tasquinimod]: the “effect on HDAC4 KD cells exposed to hypoxia” value with HDAC4 KD LNCaP cells (10 μM, 1% O2) is reported as “the cells die”. This compound also displayed an inhibition at 10 µM in the assay on HDAC4 KD LNCaP cells (Homo sapiens, LNCaP, normoxic) greater than 50%. The half-inhibitory concentration (IC50) was 1300 nM at fl-HDAC4 (wild-type) (competitive SPR assay, read-out: IC50 of TasQ in solution to reduce binding of fl-wild-type HDAC4 to immobilized TasQ); > 50000 nM and ~50000 nM in assay [1]. The dissociation constant Kd was 4900 nM at fl-HDAC4 (wild-type) (compound in solution, immobilized fl-HDAC4, n=4, read-out: KD); roughly 20 nM at fl-HDAC4 (wild-type) (fl-HDAC4 in solution, immobilized amine-linked TasQ, Zn2+, read-out: KD calculated from the on- and off-rates); roughly 130 nM on fl-HDAC4 (wild-type) (fl-HDAC4 in solution, immobilized amine-linked TasQ, Zn2+, read-out: KD from the steady state dose-response curve).
